From publication PMC9518264, “Design and synthesis of novel quinazolinone-based derivatives as EGFR inhibitors with antitumor activity” (Journal of Enzyme Inhibition and Medicinal Chemistry, 2022)

Key:
[1] = test system: CCRF-CEM; test: cells; format: cell-based; conditions: Homo sapiens, 10 μM, read-out: growth inhibition % (GI%)
[2] = test system: HL-60(TB); test: cells; format: cell-based; conditions: Homo sapiens; HL-60(TB); 10 μM; read-out: growth inhibition % (GI%)
[3] = test system: MOLT-4; test: cells; format: cell-based; conditions: Homo sapiens; MOLT-4; 10 μM; read-out: growth inhibition % (GI%)
[4] = test system: RPMI-8226; test: cells; format: cell-based; conditions: Homo sapiens; RPMI-8226; 10 μM; read-out: growth inhibition % (GI%)
[5] = test system: SR; test: cells; format: cell-based; conditions: Homo sapiens, 10 μM, read-out: growth inhibition % (GI%)
[6] = test system: A549/ATCC; test: cells; format: cell-based; conditions: Homo sapiens; A549/ATCC; 10 μM; read-out: growth inhibition % (GI%)
[7] = test system: EKVX; test: cells; format: cell-based; conditions: Homo sapiens, 10 μM, read-out: growth inhibition % (GI%)
[8] = test system: HOP-62; test: cells; format: cell-based; conditions: Homo sapiens; HOP-62; 10 μM; read-out: growth inhibition % (GI%)
[9] = test system: HOP-92; test: cells; format: cell-based; conditions: Homo sapiens; HOP-92; 10 μM; read-out: growth inhibition % (GI%)
[10] = test system: NCI-H226; test: cells; format: cell-based; conditions: Homo sapiens; NCI-H226; 10 μM; read-out: growth inhibition % (GI%)
[11] = test system: NCI-H322M; test: cells; format: cell-based; conditions: Homo sapiens, 10 μM, read-out: growth inhibition % (GI%)
[12] = test system: NCI-H460; test: cells; format: cell-based; conditions: Homo sapiens; NCI-H460; 10 μM; read-out: growth inhibition % (GI%)
[13] = test system: NCI-H522; test: cells; format: cell-based; conditions: Homo sapiens; NCI-H522; 10 μM; read-out: growth inhibition % (GI%)
[14] = test system: COLO-205; test: cells; format: cell-based; conditions: Homo sapiens; COLO-205; 10 μM; read-out: growth inhibition % (GI%)
[15] = test system: HCC-2998; test: cells; format: cell-based; conditions: Homo sapiens; HCC-2998; 10 μM; read-out: growth inhibition % (GI%)
[16] = test system: HCT-116; test: cells; format: cell-based; conditions: Homo sapiens; HCT-116; 10 μM; read-out: growth inhibition % (GI%)
[17] = test system: HCT-15; test: cells; format: cell-based; conditions: Homo sapiens; HCT-15; 10 μM; read-out: growth inhibition % (GI%)
[18] = test system: HT29; test: cells; format: cell-based; conditions: Homo sapiens, HT-29; HT29; 10 μM; read-out: growth inhibition % (GI%)
[19] = test system: SW-620; test: cells; format: cell-based; conditions: Homo sapiens; SW-620; 10 μM; read-out: growth inhibition % (GI%)
[20] = test system: SF-295; test: cells; format: cell-based; conditions: Homo sapiens; SF-295; 10 μM; read-out: growth inhibition % (GI%)
[21] = test system: SF-539; test: cells; format: cell-based; conditions: Homo sapiens; SF-539; 10 μM; read-out: growth inhibition % (GI%)
[22] = test system: SNB-19; test: cells; format: cell-based; conditions: Homo sapiens; SNB-19; 10 μM; read-out: growth inhibition % (GI%)
[23] = test system: SNB-75; test: cells; format: cell-based; conditions: Homo sapiens; SNB-75; 10 μM; read-out: growth inhibition % (GI%)
[24] = test system: U251; test: cells; format: cell-based; conditions: Homo sapiens, U-251; U251; 10 μM; read-out: growth inhibition % (GI%)
[25] = test system: MALME-3M; test: cells; format: cell-based; conditions: Homo sapiens; MALME-3M; 10 μM; read-out: growth inhibition % (GI%)
[26] = test system: SK-MEL-2; test: cells; format: cell-based; conditions: Homo sapiens; SK-MEL-2; 10 μM; read-out: growth inhibition % (GI%)
[27] = test system: SK-MEL-28; test: cells; format: cell-based; conditions: Homo sapiens; SK-MEL-28; 10 μM; read-out: growth inhibition % (GI%)
[28] = test system: SK-MEL-5; test: cells; format: cell-based; conditions: Homo sapiens; SK-MEL-5; 10 μM; read-out: growth inhibition % (GI%)
[29] = test system: UACC-257; test: cells; format: cell-based; conditions: Homo sapiens; UACC-257; 10 μM; read-out: growth inhibition % (GI%)
[30] = test system: UACC-62; test: cells; format: cell-based; conditions: Homo sapiens; UACC-62; 10 μM; read-out: growth inhibition % (GI%)
[31] = test system: OVCAR-4; test: cells; format: cell-based; conditions: Homo sapiens; OVCAR-4; 10 μM; read-out: growth inhibition % (GI%)
[32] = test system: OVCAR-5; test: cells; format: cell-based; conditions: Homo sapiens; OVCAR-5; 10 μM; read-out: growth inhibition % (GI%)
[33] = test system: NCI/ADR-RES; test: cells; format: cell-based; conditions: Homo sapiens, 10 μM, read-out: growth inhibition % (GI%)
[34] = test system: 786-0; test: cells; format: cell-based; conditions: Homo sapiens; 786-0; 10 μM; read-out: growth inhibition % (GI%)
[35] = test system: A498; test: cells; format: cell-based; conditions: Homo sapiens; A498; 10 μM; read-out: growth inhibition % (GI%)
[36] = test system: ACHN; test: cells; format: cell-based; conditions: Homo sapiens, 10 μM, read-out: growth inhibition % (GI%)
[37] = test system: SN12C; test: cells; format: cell-based; conditions: Homo sapiens, 10 μM, read-out: growth inhibition % (GI%)
[38] = test system: TK-10; test: cells; format: cell-based; conditions: Homo sapiens; TK-10; 10 μM; read-out: growth inhibition % (GI%)
[39] = test system: UO-31; test: cells; format: cell-based; conditions: Homo sapiens; UO-31; 10 μM; read-out: growth inhibition % (GI%)
[40] = test system: PC-3; test: cells; format: cell-based; conditions: Homo sapiens; PC-3; 10 μM; read-out: growth inhibition % (GI%)
[41] = test system: DU-145; test: cells; format: cell-based; conditions: Homo sapiens; DU-145; 10 μM; read-out: growth inhibition % (GI%)
[42] = test system: MCF7; test: cells; format: cell-based; conditions: Homo sapiens; MCF7; 10 μM; read-out: growth inhibition % (GI%)
[43] = test system: BT-549; test: cells; format: cell-based; conditions: Homo sapiens; BT-549; 10 μM; read-out: growth inhibition % (GI%)
[44] = test system: T-47D; test: cells; format: cell-based; conditions: Homo sapiens, T47D; T-47D; 10 μM; read-out: growth inhibition % (GI%)
[45] = test system: panel of 60 tumour cell lines; test: NCI 60 cell line antiproliferative screening (SRB), whole panel or subpanels (means, ranges, words); format: cell-based, human; conditions: for antiproliferative activity against all tested cell lines: 10 μM single dose; for inhibition at 10 µM: Homo sapiens, 60 cell, read-out: Mean growth inhibition % (mean GI%)
[46] = test system: MDA-MB-468; test: NCI 60 cell line antiproliferative screening (SRB), Breast cancer; conditions: Homo sapiens, MDA-MB-468, read-out: growth inhibition % (GI%)
[47] = test system: OVCAR-3; test: NCI 60 cell line antiproliferative screening (SRB), Ovarian cancer; conditions: Homo sapiens, OVCAR-3, read-out: growth inhibition % (GI%)
[48] = mean over the cell line panel, 10 μM

COc1ccc(Oc2ccc(C=NNC(=O)CSc3nc4ccccc4c(=O)n3-c3ccccc3)cc2)cc1 [6c, N'-(4–(4-methoxyphenoxy)benzylidene)-2-((4-oxo-3-phenyl-3,4-dihydroquinazolin-2-yl)thio)acetohydrazide]
inhibition at 10 µM [1]: < 15% | inhibition at 10 µM [2]: < 15% | inhibition at 10 µM [3]: < 15% | inhibition at 10 µM [4]: < 15% | inhibition at 10 µM [5]: < 15% | inhibition at 10 µM [6]: < 15% | inhibition at 10 µM [7]: < 15% | inhibition at 10 µM [8]: < 15% | inhibition at 10 µM [9]: < 15% | inhibition at 10 µM [10]: < 15% | inhibition at 10 µM [11]: < 15% | inhibition at 10 µM [12]: < 15% | inhibition at 10 µM [13]: < 15% | inhibition at 10 µM [14]: < 15% | inhibition at 10 µM [15]: < 15% | inhibition at 10 µM [16]: < 15% | inhibition at 10 µM [17]: < 15% | inhibition at 10 µM [18]: < 15% | inhibition at 10 µM [19]: < 15% | inhibition at 10 µM [20]: < 15% | inhibition at 10 µM [21]: < 15% | inhibition at 10 µM [22]: < 15% | inhibition at 10 µM [23]: < 15% | inhibition at 10 µM [24]: < 15% | inhibition at 10 µM [25]: < 15% | inhibition at 10 µM [26]: < 15% | inhibition at 10 µM [27]: < 15% | inhibition at 10 µM [28]: < 15% | inhibition at 10 µM [29]: < 15% | inhibition at 10 µM [30]: < 15% | inhibition at 10 µM [31]: < 15% | inhibition at 10 µM [32]: < 15% | inhibition at 10 µM [33]: < 15% | inhibition at 10 µM [34]: < 15% | inhibition at 10 µM [35]: 17.2% | inhibition at 10 µM [36]: < 15% | inhibition at 10 µM [37]: < 15% | inhibition at 10 µM [38]: < 15% | inhibition at 10 µM [39]: < 15% | inhibition at 10 µM [40]: < 15% | inhibition at 10 µM [41]: < 15% | inhibition at 10 µM [42]: < 15% | inhibition at 10 µM [43]: < 15% | inhibition at 10 µM [44]: < 15% | antiproliferative activity against all tested cell lines [45]: no activity | inhibition at 10 µM [45, 48]: 0% | Mean growth inhibition % (mean GI%) [45, 48]: < 0% | inhibition at 10 µM [46]: < 15% | inhibition at 10 µM [47]: < 15%

O=C(CSc1nc2ccccc2c(=O)n1-c1ccccc1)NN=Cc1ccc(N2CCOCC2)cc1 [6h, N'-(4-morpholinobenzylidene)-2-((4-oxo-3-phenyl-3,4-dihydroquinazolin-2-yl)thio)acetohydrazide]
inhibition at 10 µM [1]: < 15% | inhibition at 10 µM [2]: < 15% | inhibition at 10 µM [3]: < 15% | inhibition at 10 µM [4]: < 15% | inhibition at 10 µM [5]: < 15% | inhibition at 10 µM [6]: < 15% | inhibition at 10 µM [7]: < 15% | inhibition at 10 µM [8]: < 15% | inhibition at 10 µM [9]: 18.7% | inhibition at 10 µM [10]: < 15% | inhibition at 10 µM [11]: < 15% | inhibition at 10 µM [12]: < 15% | inhibition at 10 µM [13]: < 15% | inhibition at 10 µM [14]: < 15% | inhibition at 10 µM [15]: < 15% | inhibition at 10 µM [16]: < 15% | inhibition at 10 µM [17]: < 15% | inhibition at 10 µM [18]: < 15% | inhibition at 10 µM [19]: < 15% | inhibition at 10 µM [20]: < 15% | inhibition at 10 µM [21]: < 15% | inhibition at 10 µM [22]: < 15% | inhibition at 10 µM [23]: < 15% | inhibition at 10 µM [24]: < 15% | inhibition at 10 µM [25]: < 15% | inhibition at 10 µM [26]: < 15% | inhibition at 10 µM [27]: < 15% | inhibition at 10 µM [28]: < 15% | inhibition at 10 µM [29]: < 15% | inhibition at 10 µM [30]: < 15% | inhibition at 10 µM [31]: < 15% | inhibition at 10 µM [32]: < 15% | inhibition at 10 µM [33]: < 15% | inhibition at 10 µM [34]: < 15% | inhibition at 10 µM [35]: 15.8% | inhibition at 10 µM [36]: < 15% | inhibition at 10 µM [37]: < 15% | inhibition at 10 µM [38]: < 15% | inhibition at 10 µM [39]: < 15% | inhibition at 10 µM [40]: < 15% | inhibition at 10 µM [41]: < 15% | inhibition at 10 µM [42]: < 15% | inhibition at 10 µM [43]: < 15% | inhibition at 10 µM [44]: < 15% | antiproliferative activity against all tested cell lines [45]: did not show activity | inhibition at 10 µM [45, 48]: < 0% | inhibition at 10 µM [46]: < 15% | inhibition at 10 µM [47]: < 15%
